Reference: patent US20190192458A1, “THERAPEUTIC/PROPHYLACTIC AGENT FOR GRAFT-VERSUS-HOST DISEASE, FIBROCYTE INVASION INHIBITOR, AND INHIBITOR AGAINST TEAR REDUCTION AND REDUCTION IN GOBLET CELLS” (KEIO UNIVERSITY, priority 2016, published 2019)

Columns and labels:
[1] = system: CTGF; assay: Immunoblot analysis of fibrosis marker CTGF in organs; type: in vivo, mouse; settings: PBA-treated vs vehicle-treated organs, n=4, P<0.05, FIG. 5B, 5C
Method: Bone marrow transplantation was performed as described in the above section “Bone marrow transplantation,” and the resulting allogeneic bone marrow transplantation recipient mice were divided into two groups. One group was treated with intraperitoneal injection of PBA (10 mg/kg) (Aldrich) while the other was treated with intraperitoneal injection of a solvent vehicle⋅phosphate buffered saline (PBS) (pH 7.4). The allogeneic bone marrow transplantation recipients received once-daily administration of PBA or the solvent vehicle from Day 10 to Day 27 after bone marrow transplantation. They were sacrificed on Day 28 after bone marrow transplantation. […]
Proteins of interest were visualized by either one of the following two methods. (1) A target protein was colorimetrically detected using a BCIP/NBT substrate (Promega). […]
The intensity of the resulting protein band was analyzed using image processing software ImageJ. […]
With regard to the secondary antibody, (1) either AP-conjugated anti-mouse IgG antibody (Promega) or AP-conjugated anti-rabbit IgG antibody (Promega) was used when protein bands were chromogenically visualized; (2) HRP-conjugated anti-mouse antibody (Thermo Fisher Scientific) or HRP-conjugated anti-rabbit antibody (Thermo Fisher Scientific) was used when target proteins were detected by ECL.

[2] = system: cGVHD target organs; assay: Histological observation of cGVHD target organs (HE, Mallory, CD45 immunostaining, electron microscopy, PAS); type: in vivo, mouse
Method: Bone marrow transplantation was performed as described in the above section “Bone marrow transplantation,” and the resulting allogeneic bone marrow transplantation recipient mice were divided into two groups. One group was treated with intraperitoneal injection of PBA (10 mg/kg) (Aldrich) while the other was treated with intraperitoneal injection of a solvent vehicle⋅phosphate buffered saline (PBS) (pH 7.4). The allogeneic bone marrow transplantation recipients received once-daily administration of PBA or the solvent vehicle from Day 10 to Day 27 after bone marrow transplantation. They were sacrificed on Day 28 after bone marrow transplantation.
cGVHD-affected organs (exorbital lacrimal gland, proximal portion of the small intestine, dorsal skin, liver, salivary gland, lung, large intestine, and eyes) were analyzed herein.
The exorbital lacrimal gland, the proximal part of the small intestine, dorsal skin, the liver, the salivary gland, the lung, the large intestine, and the eyes were collected from transplant recipients at 3 or 4 weeks after bone marrow transplantation. Subsequently, these samples were fixed with 10% neutral buffered formalin, and then each embedded in paraffin. The resulting paraffin blocks were each cut into 7-μm thick sections, and then stained with • (1) hematoxylin and eosin; • (2) Malory trichrome staining (Hopwood J, Fixation and fixtative. In: Bancroft J D, Stevens A, eds., Theory and Practice of Histological Techniques, 4th ed, Edinburgh: Churchill-Livingstone, 1996:23-46; Anderson G, Gordon K, Tissue processing, microtomy and paraffin sections. In: Bancroft J D, Stevens A, eds. T. Theory and Practice of Histological Techniques, 4th ed, Edinburgh: Churchill-Livingstone, 1996:47-68); and • (3) antibody.
For immunohistochemical assay, paraffin was first removed, and antigens were then collected by either one of the following two antigen collecting methods. • (A) For staining sections with CD45 antibody (30-F11, BD Pharmingen), the sections were immersed in an antigen retrieval solution (Target Retrieval Solution; Dako), and then boiled for 10 minutes in a microwave oven. • (B) For multistaining with CD68 (FA-11, Abd Serotec) and CHOP (F-168, Santa Cruz Biotechnology, Inc.), sections were washed with an antigen retrieval solution (HistoVT One; Nacalai Tesque, Inc.), and then heated in a water bath at 90° C. for 40 minutes. Next, the sections were blocked with 10% normal goat blood serum, and antigens in the tissue sections were then allowed to react with the primary antibodies at 4° C. overnight. Subsequently, the sections were treated with fluorophore-labelled secondary antibodies at room temperature (for example, 1 to 30° C.) for 45 minutes, and then mounted with an anti-fading mounting medium (Fluorescent Mounting Medium; Dako).
Fluorescence images were captured under an LSM confocal microscope (Carl Zeiss). For counting CD45^+ cells, 5 randomly selected regions per section were photographed at a magnification of ×200, and the number of CD45^+ cells in each image was then determined. As secondary antibodies, used were goat anti-mouse IgG (H+L) secondary antibody conjugated with Alexa Fluor 488 (Molecular Probes) and goat anti-rat IgG (H+L) secondary antibody conjugated with Alexa Fluor 568 (Molecular Probes). For isotype controls, rat IgG2b, κ (eB149/10H5, eBioscience, Inc.), rat IgG2a (54447, R&D Systems, Inc.), and rabbit IgG (Cell Signaling Technology, Inc.) were used for CD45, CD68, and CHOP, respectively.
Transmission electron microscopy was performed in accordance with a standard protocol. Tissues were collected from a mouse lacrimal gland and small intestine, and immediately fixed with 2.5% glutaraldehyde in 0.1 M phosphate buffer (pH 7.4) at 4° C. for 4 hours, and then washed 3 times with 0.1 M phosphate buffer. Subsequently, the samples were fixed again with 2% osmium tetroxide, and dehydrated with a gradient series of ethanol and 100% propylene oxide, and then embedded in epoxy resin. […]

[3] = PBA-treated vs vehicle-treated eye, FIG. 4-1A

Question: What does the source list for `O=C(O)CCCc1ccccc1` [PBA, 4-phenyl-n-butyric acid]?
Answer: CTGF expression in organs [1]: overexpressed in the vehicle-treated organs, but not in the PBA-treated organs; electron microscopy: hypertrophied endoplasmic reticula, cell fragments, damaged mitochondria, destroyed small villi, damaged adjacent tissues ([2]; PBA-treated lacrimal gland and small intestine vs vehicle-treated, FIG. 4-2D): not observed; goblet cells in conjunctiva epithelium (PAS staining) ([2]; PBA-treated vs vehicle-injected eye, n=5, P<0.001, FIG. 4-2F, 4-2G): more goblet cells; goblet cells in small intestine (PAS staining) ([2]; PBA-treated vs vehicle-injected small intestine, n=3, P<0.001, FIG. 4-2F, 4-2G): more goblet cells; conjunctiva epithelium thinning and damage (HE staining) [2, 3]: thinning and damage were observed in the vehicle-treated conjunctiva epithelium in contrast with the PBA-treated conjunctiva epithelium; meibomian gland (HE staining) [2, 3]: the meibomian gland of the vehicle-treated eye was decreased and contracted as compared with the PBA-treated meibomian gland; infiltration of inflammatory cells (HE staining) ([2]; PBA-treated vs vehicle-treated organs, FIG. 4-1A): inhibited; cGVHD-induced systemic fibrosis (Mallory staining) ([2]; PBA-treated vs vehicle-treated organs, FIG. 4-1C): substantially inhibited; numbers of inflammatory cells (CD45+ cells) ([2]; PBA-treated vs vehicle-treated organs, immunostaining and counting, n=3, FIG. 4-2E): considerably smaller; skin thickness, fat tissues, density of collagen bundles (HE staining) ([2]; PBA-treated vs vehicle-treated skin, FIG. 4-1A): the vehicle-treated skin became thickened, lost fat tissues, and increased the density of collagen bundles in contrast with the PBA-treated skin; intestinal villi of small and large intestines (HE staining) ([2]; PBA-treated vs vehicle-treated small and large intestines, FIG. 4-1A): not impaired; structures of the intestinal and conjunctival mucous membranes (PAS staining) ([2]; after systemic injection of PBA): remained intact
